Laboratory results: US9382288B2, “Derivatives of steroid benzylamines, having an antiparasitic antibacterial, antimycotic and/or antiviral action” (Justus-Liebig-Universitat Giessen, priority 2010, dated 2016)
Converted amounts (≈) assume the structure as drawn. “And” between values parts separate entries of the source, which are not always exact repeats. Identical values can stand only once. Like-named read-outs stand apart in the source and are kept apart here.

Assays:
[1] = test system: P. falciparum strain 3D7-Netherlands; test: In vitro IC50, 3H-hypoxanthine incorporation, P. falciparum 3D7; type: cell-based, Plasmodium falciparum; settings: Plasmodium falciparum
[2] = test system: Plasmodium falciparum strain K1; test: In vitro IC50, 3H-hypoxanthine incorporation, P. falciparum K1; type: cell-based; settings: chloroquine-resistant Plasmodium falciparum strain K1
L929 = test: Antiproliferative activity L929; type: cell-based; settings: Mus musculus, read-out: IC50 [μg/ml] Antiproliferative activity L929
K562 = test: Antiproliferative activity K562; type: cell-based; settings: Homo sapiens, read-out: IC50 [μg/ml] Antiproliferative activity K562
[3] = test system: Plasmodium berghei GFP MRA-865; test: Plasmodium berghei infection in the mouse model (in vivo); settings: for Activity (%): parasitemia day 4 vs untreated controls
Cytotoxicity HeLa = settings: human, HeLa cells
adult S. mansoni = test: In vitro treatment of adult S. mansoni couples, visual evaluation by microscope; design: species or system Schistosoma mansoni
Method: Compounds 2, 18 and 41 were tested by Prof. Dr. Grevelding, Parasitology, Veterinary Medicine, University of Gieβen, also in the parasite Schistosoma mansoni. […] Each test was performed with 3 groups of 10 worms each. Remarkable was that different effects on the worms with respect to morphological alterations could be observed. […] Exemplarily shown in FIGS. 1 and 2 is an image of a control assay and an image of trematodes after 48 hours of incubation with compound 18.
Each one of the three groups (one group per well) comprised 10 pairs of adult S. mansoni were incubated with the substance to be tested for 24 h. As control served three groups which were incubated with medium (M199) and three groups which were incubated with medium and DMSO as solvent of the test substances. Evaluation was done visually using a microscope.
In a second experimental setting, again three groups each (one group per well) with 8 pairs of adult S. mansoni each were incubated with the compound to be tested, however for 48 h in this experiment. As control served three groups which were either incubated with medium (M199) or medium and DMSO as solvent of the test substances. Evaluation was done visually using a microscope.

[4] = test system: Trypanosoma brucei brucei S427; test: In vitro efficacy against Trypanosoma brucei; type: cell-based
Method: Compounds 18 and 41 were assessed at the London School of Hygiene and Tropical Medicine in vitro with respect to their efficacy against the parasite Trypanosoma brucei brucei […].

[5] = P. falciparum strain 3D7, read-out: IC50 [nM] P.f.(3D7)

SMILES: COc1ccc2c(c1)CCC1C2CC[C@@]2(C)C1CC[C@@H]2NCc1ccccc1O (stereo partly drawn) [Compound 1, 17β-(2-Hydroxyphenyl-methylamino)-3-methoxy-estra-1,3,5(10)-triene]
- IC50 [1, 5]: 50 nM
- IC50 ([1]; P. falciparum strain 3D7, read-out: IC50 [ng/ml] P.f.(3D7)): 19.8 ng/mL
- IC50 [2]: 73 nM
- IC50 (L929): 2.2 µg/mL (≈ 5.62 µM)
- IC50 (K562): 0.8 µg/mL (≈ 2.04 µM)
- life span in words ([3]; all dosages and routes of administration tested): considerably extended the life span
- MSD (days) ([3]; oral 3 × 100 mg/kg): 16.3 (n = 3) days
- Activity (%) ([3]; oral 3 × 100 mg/kg): 99%
- MSD (days) ([3]; sc 3 × 10 mg/kg): 10.2 (n = 3) days
- Activity (%) ([3]; sc 3 × 10 mg/kg): 47%
- MSD (days) ([3]; sc 3 × 30 mg/kg): 15 (n = 3) days
- Activity (%) ([3]; sc 3 × 30 mg/kg): 94%
- IC50 (Cytotoxicity HeLa): 11 µM and 4.3 µg/mL

SMILES: COc1ccc2c(c1)CCC1C2CC[C@@]2(C)C1CC[C@@H]2NCc1cc2ccccc2cc1O (stereo partly drawn) [Compound 18, 17β-[(3-Hydroxynaphth-2-yl)-methylamino]-3-methoxy-estra-1,3,5(10)-triene]
- IC50 ([1]; 3D7, read-out: IC50 [ng/ml] P.f.(3D7)): 3.1 ng/mL
- IC50 [1, 5]: 7 nM
- morphological alterations of the worms (adult S. mansoni): ventral bending
- egg production (adult S. mansoni; 24 hours, 20 μM): Almost no eggs were detectable
- motility / vitality (adult S. mansoni; 24 hours, 20 μM): Males barely moved and showed only twitching
- couples detectable (adult S. mansoni; 24 hours, 20 μM, 3 groups of 10 pairs): no couples could be detected
- egg production (adult S. mansoni; 24 hours, 100 μM): Almost no eggs were detectable
- motility / vitality (adult S. mansoni; 24 hours, 100 μM): The trematodes rarely showed slightly twitching movements
- couples detectable (adult S. mansoni; 24 hours, 100 μM, 3 groups of 10 pairs): no couples could be detected
- egg production (adult S. mansoni; 48 hours, 20 μM): No eggs were detectable
- motility / vitality (adult S. mansoni; 48 hours, 20 μM): all worms were dead
- couples detectable (adult S. mansoni; 48 hours, 20 μM, 3 groups of 8 pairs): no couples could be observed in any of the groups
- egg production (adult S. mansoni; 48 hours, 100 μM): No eggs were detectable
- motility / vitality (adult S. mansoni; 48 hours, 100 μM): all worms were dead
- couples detectable (adult S. mansoni; 48 hours, 100 μM, 3 groups of 8 pairs): no couples could be observed in any of the groups
- IC50 [4]: 930 nM
